Assay results: the supplement of paper PMC4862054

Key:
HCC1937 [1] = assay: drug sensitivity score (DSS), CellTox Green (DSS (AUC-based score)); higher = stronger drug effect (viability inhibition or cytotoxicity); extreme values may be limits of the assay; conditions: incubation time: 72 h
Summary of the method: (§1)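 Compound was dispensed into 384-well plates at 5 concentrations in 10-fold steps spanning a 10,000-fold range chosen for each compound, and 20 µl of breast cancer cell suspension was added before 72 h of incubation. CellTox Green fluorescence was read at 485/520 nm, followed by CellTiter-Glo luminescence after 10 min at room temperature. Values on each plate were normalised to 0.1 % DMSO and a positive kill control. The drug sensitivity score came from the area under the fitted dose-response curve.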

CAL-85-1 [2] = assay: as above; conditions: incubation time: 72 h
Summary of the method: as §1

MFM-223 = assay: as above; conditions: incubation time: 72 h
Summary of the method: as §1

HCC1599 [3] = assay: as above; conditions: incubation time: 72 h
Summary of the method: as §1

MDA-MB-436 [4] = assay: as above; conditions: incubation time: 72 h
Summary of the method: as §1

MDA-MB-231 [5] = assay: as above; conditions: incubation time: 72 h
Summary of the method: as §1

MCF-10A = assay: as above; conditions: incubation time: 72 h
Summary of the method: as §1

MDA-MB-468 [6] = assay: as above; conditions: incubation time: 72 h
Summary of the method: as §1

HCC1937 [7] = assay: normalised viability (% of control), CellTiter-Blue; higher = more viable cells (about 100 = DMSO control); conditions: incubation time: 72 h
Summary of the method: (§2)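 The reported quantity is normalised viability at a single listed concentration of the series. Compound in 5 µl medium was pre-dispensed into 384-well plates and 20 µl of breast cancer cell suspension was added for 72 h. A 2 h, 37 °C CellTiter-Blue step (2.5 µl) preceded fluorescence reading at 560/590 nm, and plates were normalised to vehicle (100) and a positive kill control (0).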

HDQ-P1 = assay: as above; conditions: incubation time: 72 h
Summary of the method: as §2

Hs578T = assay: as above; conditions: incubation time: 72 h
Summary of the method: as §2

SK-BR-3 = assay: as above; conditions: incubation time: 72 h
Summary of the method: as §2

CAL-148 = assay: as above; conditions: incubation time: 72 h
Summary of the method: as §2

DU-4475 = assay: as above; conditions: incubation time: 72 h
Summary of the method: as §2

MDA-MB-453 = assay: as above; conditions: incubation time: 72 h
Summary of the method: as §2

CAL-85-1 [8] = assay: as above; conditions: incubation time: 72 h
Summary of the method: as §2

HCC1143 = assay: as above; conditions: incubation time: 72 h
Summary of the method: as §2

CAL-120 = assay: as above; conditions: incubation time: 72 h
Summary of the method: as §2

HCC1599 [9] = assay: as above; conditions: incubation time: 72 h
Summary of the method: as §2

MDA-MB-436 [10] = assay: as above; conditions: incubation time: 72 h
Summary of the method: as §2

MDA-MB-231 [11] = assay: as above; conditions: incubation time: 72 h
Summary of the method: as §2

MDA-MB-468 [12] = assay: as above; conditions: incubation time: 72 h
Summary of the method: as §2

MDA-MB-468 [13] = conditions: 72 h
Summary of the method: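 Per-plate normalisation used 0.1 % DMSO and a positive kill control. Breast cancer cell lines (20 µl suspension) were seeded into 384-well plates containing compound at 5 concentrations in 10-fold steps across a compound-specific 10,000-fold range, incubated for 72 h, and read first for CellTox Green fluorescence (485/520 nm), then for CellTiter-Glo luminescence. EC50 was fitted from the dose-response curves and censored at the top concentration.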

CN(C)c1nc(N(C)C)nc(N(C)C)n1 [Altretamine]
Conditions	drug sensitivity score
CAL-85-1 [2]	0
HCC1599 [3]	0
HCC1937 [1]	0
MCF-10A	0
MDA-MB-231 [5]	0
MDA-MB-436 [4]	0
MDA-MB-468 [6]	0
MFM-223	0

normalised viability [%]
Conditions	3 nM	10 nM	30 nM	100 nM	1000 nM	10000 nM
CAL-85-1 [8]	105	–	91.5	119	–	–
CAL-120	–	88.6	–	–	98.5	105
CAL-148	99.5	–	96.7	104	–	–
DU-4475	94.6	–	83.6	105	–	–
HCC1143	–	74.7	–	–	88.4	91.2
HCC1599 [9]	–	95.7	–	–	98.2	73.5
HCC1937 [7]	–	100	–	–	96.3	88.6
HDQ-P1	107	–	92.7	112	–	–
Hs578T	–	107	–	–	96.9	102
MDA-MB-231 [11]	–	99.7	–	–	90.9	106
MDA-MB-436 [10]	–	102	–	–	99.5	85.5
MDA-MB-453	119	–	99.5	97.4	–	–
MDA-MB-468 [12]	–	94.5	–	–	104	103
SK-BR-3	–	106	–	–	113	100

COc1cc(OC2CCN(C)CC2)ccc1Nc1ncc2c(n1)n(C1CCCC1)c(=O)n2C [AZ 3146]
Conditions	EC50, CellTiter-Glo [µM]	drug sensitivity score
CAL-85-1 [2]	–	0
HCC1599 [3]	–	2.26
MCF-10A	–	0
MDA-MB-231 [5]	–	0
MDA-MB-436 [4]	–	4.7
MDA-MB-468 [6]	–	0
MDA-MB-468 [13]	6.65	–
MFM-223	–	0

normalised viability [%]
Conditions	3 nM	10 nM	30 nM	100 nM	1000 nM	10000 nM
CAL-85-1 [8]	111	–	109	102	–	–
CAL-120	–	115	–	–	109	76.5
CAL-148	111	–	102	115	–	–
DU-4475	111	–	90	100	–	–
HCC1143	–	132	–	–	126	95.3
HCC1599 [9]	–	107	–	–	121	111
HCC1937 [7]	–	124	–	–	98	92
HDQ-P1	80.8	–	100	118	–	–
Hs578T	–	111	–	–	109	80.1
MDA-MB-231 [11]	–	96.5	–	–	82.3	45.8
MDA-MB-436 [10]	–	102	–	–	94.4	85.6
MDA-MB-453	96	–	97.7	85.3	–	–
MDA-MB-468 [12]	–	109	–	–	103	53.3
SK-BR-3	–	104	–	–	86.8	74.5
